Laboratory results taken from ChEMBL document CHEMBL2046442, “Rationally designing safer anilines: the challenging case of 4-aminobiphenyls” (J Med Chem, 2012).

Columns and labels:
Type in all cases: toxicity, organism-based
Conditions in all cases: salmonella enterica subsp. enterica serovar typhimurium
Salmonella typhimurium [1] = assay: Induction of mutagenesis in Salmonella typhimurium TA98 at 50 ug/plate by Ames test in presence of rat liver S9 fraction relative to control
Salmonella typhimurium [2] = assay: Induction of mutagenesis in Salmonella typhimurium TA100 at 16 ug/plate by Ames test in presence of rat liver S9 fraction relative to control
Salmonella typhimurium [3] = assay: Induction of mutagenesis in Salmonella typhimurium TA100 up to 5000 ug/plate by Ames test
Salmonella typhimurium [4] = assay: Induction of mutagenesis in Salmonella typhimurium TA98 up to 5000 ug/plate by Ames test
Salmonella typhimurium [5] = assay: Induction of mutagenesis in Salmonella typhimurium TA98 at 160 ug/plate by Ames test in presence of rat liver S9 fraction relative to control
Salmonella typhimurium [6] = assay: Induction of mutagenesis in Salmonella typhimurium TA100 at 160 ug/plate by Ames test in presence of rat liver S9 fraction relative to control
Salmonella typhimurium [7] = assay: Induction of mutagenesis in Salmonella typhimurium TA98 up to 5000 ug/plate by Ames test in presence of rat liver S9 fraction
Salmonella typhimurium [8] = assay: Induction of mutagenesis in Salmonella typhimurium TA100 up to 5000 ug/plate by Ames test in presence of rat liver S9 fraction
Salmonella typhimurium [9] = assay: Induction of mutagenesis in Salmonella typhimurium TA100 at 50 ug/plate by Ames test in presence of rat liver S9 fraction relative to control
Salmonella typhimurium [10] = assay: Induction of mutagenesis in Salmonella typhimurium TA98 at 1600 ug/plate by Ames test in presence of rat liver S9 fraction relative to control
Salmonella typhimurium [11] = assay: Induction of mutagenesis in Salmonella typhimurium TA100 at 500 ug/plate by Ames test in presence of rat liver S9 fraction relative to control
Salmonella typhimurium [12] = assay: Induction of mutagenesis in Salmonella typhimurium TA98 at 500 ug/plate by Ames test in presence of rat liver S9 fraction relative to control

| Compound | Activity (Salmonella typhimurium [3]) | Activity (Salmonella typhimurium [4]) | fold change (FC) (Salmonella typhimurium [5]) | fold change (FC) (Salmonella typhimurium [6]) | Activity (Salmonella typhimurium [7]) | Activity (Salmonella typhimurium [8]) | also measured |
| --- | --- | --- | --- | --- | --- | --- | --- |
| Nc1ccc(-c2ccccc2)cc1F | Non-toxic | Non-toxic |  |  |  |  | fold change (FC) (Salmonella typhimurium [1]): 54; fold change (FC) (Salmonella typhimurium [2]): 27 |
| Nc1ccc(-c2ccccc2Cl)cc1 | Non-toxic | Non-toxic | 11 | 5 |  |  |  |
| N#Cc1cc(N)ccc1-c1ccccc1Cl | Non-toxic | Non-toxic |  |  | Non-toxic | Non-toxic |  |
| Nc1ccc(-c2ccc(F)cc2)cc1 | Non-toxic | Non-toxic | 43 | 21 |  |  |  |
| Nc1ccc(-c2ccccc2F)c(F)c1 | Non-toxic | Non-toxic |  |  | Non-toxic | Non-toxic |  |
| Nc1ccc(-c2ccccc2)cc1Cl | Non-toxic | Non-toxic |  |  |  |  | fold change (FC) (Salmonella typhimurium [1]): 54; fold change (FC) (Salmonella typhimurium [9]): 37 |
| CS(=O)(=O)NCc1ccc(-c2ccc(N)cc2F)c(Cl)c1 | Non-toxic | Non-toxic |  |  |  | Non-toxic | fold change (FC) (Salmonella typhimurium [10]): 3 |
| Nc1ccc(-c2ccccc2Cl)c(F)c1 | Non-toxic | Non-toxic |  |  | Non-toxic | Non-toxic |  |
| N#Cc1ccc(-c2ccc(N)cc2F)c(Cl)c1 | Non-toxic | Non-toxic |  |  | Non-toxic | Non-toxic |  |
| Nc1ccc(-c2ccc(Cl)cc2)cc1 | Non-toxic | Non-toxic | 54 |  |  |  | fold change (FC) (Salmonella typhimurium [11]): 14 |
| Nc1ccc(-c2ccccc2)c(Cl)c1 | Non-toxic | Non-toxic |  |  | Non-toxic | Non-toxic |  |
| Nc1ccc(-c2ccccc2)c(F)c1 | Non-toxic | Non-toxic | 2 | 3 |  |  |  |
| Nc1ccc(-c2ccc(F)cc2F)c(F)c1 | Non-toxic | Non-toxic |  |  | Non-toxic | Non-toxic |  |
| N#Cc1cc(Cl)ccc1-c1ccc(N)cc1F | Non-toxic | Non-toxic |  |  | Non-toxic | Non-toxic |  |
| Nc1ccc(-c2c(F)cccc2Cl)c(F)c1 | Non-toxic | Non-toxic |  |  | Non-toxic | Non-toxic |  |
| Nc1ccc(-c2cccc(Cl)c2)cc1 | Non-toxic | Non-toxic | 47 |  |  |  | fold change (FC) (Salmonella typhimurium [9]): 12 |
| Nc1ccc(-c2c(F)cccc2F)c(F)c1 | Non-toxic | Non-toxic |  |  | Non-toxic | Non-toxic |  |
| Nc1ccc(-c2ccccc2F)cc1 | Non-toxic | Non-toxic | 26 | 10 |  |  |  |
| Nc1ccc(-c2c(F)cccc2F)cc1 | Non-toxic | Non-toxic |  | 3 |  |  | fold change (FC) (Salmonella typhimurium [12]): 7 |
| Nc1ccc(-c2cccc(F)c2)cc1 | Non-toxic | Non-toxic | 38 | 13 |  |  |  |
